Experimental data as given in ChEMBL document CHEMBL1153419 (J Med Chem, 2009).

Key:
Histamine H1 receptor [1] = target: T1, Histamine H1 receptor (Homo sapiens, UniProt P35367); assay: Agonist activity at human H1 receptor expressed in insect Sf9 cells co-expressing RGS4 assessed as gamma[32P]GTP binding by liquid scintillation counting
Histamine H2 receptor [2] = target: T2, Histamine H2 receptor (Homo sapiens, UniProt P25021); assay: Agonist activity at human H2 receptor expressed in insect Sf9 cells co-expressing GsalphaS fusion protein assessed as gamma[32P]GTP binding by liquid scintillation counting
T2 sequence (P25021 whole entry, the tested form may be a part): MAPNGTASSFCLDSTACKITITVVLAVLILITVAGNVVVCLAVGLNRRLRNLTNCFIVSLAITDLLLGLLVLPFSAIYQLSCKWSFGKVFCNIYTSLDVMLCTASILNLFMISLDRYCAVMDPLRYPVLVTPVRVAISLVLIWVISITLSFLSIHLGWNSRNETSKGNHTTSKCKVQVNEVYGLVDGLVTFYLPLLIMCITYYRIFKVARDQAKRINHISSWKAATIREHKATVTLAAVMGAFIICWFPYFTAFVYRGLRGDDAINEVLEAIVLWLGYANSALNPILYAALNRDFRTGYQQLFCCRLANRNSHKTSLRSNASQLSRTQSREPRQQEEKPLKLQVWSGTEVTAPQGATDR

Histamine H3 receptor [3] = target: T3, Histamine H3 receptor (Homo sapiens, UniProt Q9Y5N1); assay: Agonist activity at human H3 receptor expressed in insect Sf9 cells co-expressing Gialpha2, Gbeta1gamma2 and RGS4 assessed as gamma[32P]GTP binding by liquid scintillation counting
T3 sequence (Q9Y5N1 whole entry): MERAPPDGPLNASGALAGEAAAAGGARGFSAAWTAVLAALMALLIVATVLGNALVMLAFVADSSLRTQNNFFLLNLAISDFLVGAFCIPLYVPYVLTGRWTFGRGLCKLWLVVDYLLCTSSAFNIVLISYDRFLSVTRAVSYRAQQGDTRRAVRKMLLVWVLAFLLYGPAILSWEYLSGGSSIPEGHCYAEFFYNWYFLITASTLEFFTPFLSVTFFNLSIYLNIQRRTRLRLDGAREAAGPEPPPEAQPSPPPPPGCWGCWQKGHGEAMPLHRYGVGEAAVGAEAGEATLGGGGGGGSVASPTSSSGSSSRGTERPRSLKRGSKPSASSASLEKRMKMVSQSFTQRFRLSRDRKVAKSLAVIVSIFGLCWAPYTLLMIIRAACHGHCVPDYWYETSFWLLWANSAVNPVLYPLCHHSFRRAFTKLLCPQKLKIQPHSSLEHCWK

Histamine H1 receptor [4] = target: T1, Histamine H1 receptor; assay: Intrinsic activity at human H1 receptor expressed in insect Sf9 cells co-expressing RGS4 assessed as gamma[32P]GTP binding at 10 uM by liquid scintillation counting relative to histamine
Histamine H2 receptor [5] = target: T2, Histamine H2 receptor; assay: Intrinsic activity at human H2 receptor expressed in insect Sf9 cells co-expressing GsalphaS fusion protein assessed as gamma[32P]GTP binding at 10 uM by liquid scintillation counting relative to histamine
Histamine H3 receptor [6] = target: T3, Histamine H3 receptor; assay: Intrinsic activity at human H3 receptor expressed in insect Sf9 cells co-expressing Gialpha2, Gbeta1gamma2 and RGS4 assessed as gamma[32P]GTP binding at 10 uM by liquid scintillation counting relative to histamine
Histamine H1 receptor [7] = target: Histamine H1 receptor (Cavia porcellus, UniProt P31389); assay: Antagonist activity at histamine H1 receptor in guinea pig ileum assessed as inhibition of histamine-induced contractions; assay type: functional, tissue-based; conditions: read-out: pA2 (converted)
Chain of Histamine H1 receptor (Cavia porcellus, UniProt P31389) (P31389 whole entry): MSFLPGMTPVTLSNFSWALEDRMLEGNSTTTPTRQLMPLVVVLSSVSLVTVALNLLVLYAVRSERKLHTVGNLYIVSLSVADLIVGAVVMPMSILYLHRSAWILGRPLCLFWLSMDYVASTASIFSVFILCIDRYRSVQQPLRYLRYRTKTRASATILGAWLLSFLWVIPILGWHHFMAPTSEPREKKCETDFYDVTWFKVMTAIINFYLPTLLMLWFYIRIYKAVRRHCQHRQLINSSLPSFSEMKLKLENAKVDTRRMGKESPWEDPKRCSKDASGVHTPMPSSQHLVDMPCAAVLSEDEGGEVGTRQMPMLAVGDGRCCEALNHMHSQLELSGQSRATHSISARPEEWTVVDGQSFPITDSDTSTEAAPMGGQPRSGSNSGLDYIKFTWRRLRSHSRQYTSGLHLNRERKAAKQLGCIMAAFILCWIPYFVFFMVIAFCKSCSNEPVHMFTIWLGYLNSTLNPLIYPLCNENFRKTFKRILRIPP

[8] = target: Histamine H2 receptor (Cavia porcellus) (UniProt P47747); assay: Agonist activity at histamine H2 receptor in guinea pig atrium assessed as maximal increase in heart rate relative to histamine; assay type: functional, tissue-based; conditions: Cardiac atrium
Chain of Histamine H2 receptor (Cavia porcellus) (P47747 whole entry): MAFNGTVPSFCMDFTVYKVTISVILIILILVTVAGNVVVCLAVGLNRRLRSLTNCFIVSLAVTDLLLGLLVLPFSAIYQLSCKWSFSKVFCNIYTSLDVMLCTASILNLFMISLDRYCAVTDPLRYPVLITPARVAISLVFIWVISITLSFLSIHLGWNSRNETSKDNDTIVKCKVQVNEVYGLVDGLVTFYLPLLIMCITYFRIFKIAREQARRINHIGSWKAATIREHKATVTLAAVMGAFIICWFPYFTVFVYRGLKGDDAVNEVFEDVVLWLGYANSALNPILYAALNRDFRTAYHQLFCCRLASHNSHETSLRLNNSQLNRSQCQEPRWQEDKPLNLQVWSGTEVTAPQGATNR

Histamine H2 receptor [9] = target: T4, Histamine H2 receptor (Cavia porcellus, UniProt P47747); assay: Antagonist activity at histamine H2 receptor in guinea pig right atrium assessed as inhibition of histamine-induced increase in heart rate; assay type: functional, tissue-based, Cardiac atrium; conditions: read-out: pA2 (converted)
T4 sequence (P47747 whole entry, the tested form may be a part): as the sequence (P47747 whole entry) above

Histamine H4 receptor [10] = target: T5, Histamine H4 receptor (Homo sapiens, UniProt Q9H3N8); assay: Agonist activity at human H4 receptor expressed in insect Sf9 cells co-expressing RGS19 fusion protein and Gialpha2, Gbeta1gamma2 assessed as gamma[32P]GTP binding by liquid scintillation counting
T5 sequence (Q9H3N8 whole entry, the tested form may be a part): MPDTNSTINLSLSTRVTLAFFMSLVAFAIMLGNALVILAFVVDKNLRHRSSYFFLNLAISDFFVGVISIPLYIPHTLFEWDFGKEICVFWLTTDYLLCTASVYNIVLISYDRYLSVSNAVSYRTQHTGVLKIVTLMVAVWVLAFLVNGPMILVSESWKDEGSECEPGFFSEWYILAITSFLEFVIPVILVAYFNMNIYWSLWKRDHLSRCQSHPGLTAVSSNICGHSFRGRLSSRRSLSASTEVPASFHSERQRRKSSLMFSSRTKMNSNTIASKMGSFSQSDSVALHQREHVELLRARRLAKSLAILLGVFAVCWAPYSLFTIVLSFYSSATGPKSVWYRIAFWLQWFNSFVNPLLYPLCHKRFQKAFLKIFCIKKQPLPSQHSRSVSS

Histamine H4 receptor [11] = target: T5, Histamine H4 receptor; assay: Intrinsic activity at human H4 receptor expressed in insect Sf9 cells co-expressing RGS19 fusion protein and Gialpha2, Gbeta1gamma2 assessed as gamma[32P]GTP binding at 10 uM by liquid scintillation counting relative to histamine
Histamine H2 receptor [12] = target: T4, Histamine H2 receptor; assay: Agonist activity at histamine H2 receptor in guinea pig atrium assessed as increase in heart rate; assay type: functional, tissue-based, Cardiac atrium
Histamine H1 receptor [13] = target: T1, Histamine H1 receptor; assay: Antagonist activity at human H1 receptor expressed in insect Sf9 cells co-expressing RGS4 assessed as inhibition of histamine-induced gamma[32P]GTP binding by liquid scintillation counting
Histamine H3 receptor [14] = target: T3, Histamine H3 receptor; assay: Antagonist activity at human H3 receptor expressed in insect Sf9 cells co-expressing Gialpha2, Gbeta1gamma2 and RGS4 assessed as inhibition of histamine-induced gamma[32P]GTP binding by liquid scintillation counting
Homo sapiens [15] = organism: Homo sapiens; assay: Selectivity ratio of EC50 for human H1R to EC50 for human H4R
Homo sapiens [16] = organism: Homo sapiens; assay: Selectivity ratio of EC50 for human H2R to EC50 for human H4R
Histamine H4 receptor [17] = target: T5, Histamine H4 receptor; assay: Antagonist activity at human H4 receptor expressed in insect Sf9 cells co-expressing RGS19 fusion protein and Gialpha2, Gbeta1gamma2 assessed as inhibition of histamine-induced gamma[32P]GTP binding by liquid scintillation counting

T1 sequence (P35367 whole entry, the tested form may be a part): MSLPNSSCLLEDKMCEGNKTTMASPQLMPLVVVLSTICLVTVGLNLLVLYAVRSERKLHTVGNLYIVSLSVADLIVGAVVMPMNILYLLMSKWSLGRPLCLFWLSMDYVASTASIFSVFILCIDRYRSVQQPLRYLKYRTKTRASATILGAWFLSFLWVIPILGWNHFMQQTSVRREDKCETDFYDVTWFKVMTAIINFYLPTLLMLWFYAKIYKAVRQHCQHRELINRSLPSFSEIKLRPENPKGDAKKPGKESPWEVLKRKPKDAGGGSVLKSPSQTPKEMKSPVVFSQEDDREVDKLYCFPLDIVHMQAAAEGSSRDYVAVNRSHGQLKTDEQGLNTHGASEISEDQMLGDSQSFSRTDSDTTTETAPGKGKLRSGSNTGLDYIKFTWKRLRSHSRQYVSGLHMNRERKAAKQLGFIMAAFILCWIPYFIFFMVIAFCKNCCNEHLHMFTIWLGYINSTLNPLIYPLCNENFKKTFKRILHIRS

| Structure (SMILES) | EC50 (Histamine H1 receptor [1]) [nM] | EC50 (Histamine H2 receptor [2]) [nM] | EC50 (Histamine H3 receptor [3]) [nM] | Activity (Histamine H1 receptor [4]) | Activity (Histamine H2 receptor [5]) | Activity (Histamine H3 receptor [6]) | Kb (Histamine H1 receptor [7]) [nM] | Activity [8] | Kb (Histamine H2 receptor [9]) [nM] | EC50 (Histamine H4 receptor [10]) [nM] | Activity (Histamine H4 receptor [11]) | EC50 (Histamine H2 receptor [12]) [nM] | pKb (Histamine H1 receptor [13]) | pKb (Histamine H3 receptor [14]) | Selectivity ratio (Homo sapiens [15]) | Selectivity ratio (Homo sapiens [16]) | pKb (Histamine H4 receptor [17]) |
| --- | --- | --- | --- | --- | --- | --- | --- | --- | --- | --- | --- | --- | --- | --- | --- | --- | --- |
| CCC(=O)/N=C(\N)NCCCc1c[nH]cn1 | 3470 | 372 | 1.58 | 0.3 | 0.83 | 0.39 | 5130 | 0.94 | 347 | – | – | – | – | – | – | – | – |
| CC(C)C(=O)/N=C(\N)NCCCc1c[nH]cn1 | 2570 | 110 | 1.41 | 0.35 | 0.86 | 0.26 | 7760 | 0.98 | 302 | 3.72 | 0.94 | 110 | – | – | – | – | – |
| N/C(=N\C(=O)CCc1c[nH]c2ccccc12)NCCCc1c[nH]cn1 | – | 81.3 | – | 0.09 | 0.77 | -0.18 | 398 | 1.01 | 437 | 7.08 | 0.45 | 77.6 | 5.4 | 7.57 | – | – | – |
| CC(=O)/N=C(\N)NCCCc1c[nH]cn1 | – | – | – | 0.24 | 0.76 | 0.27 | – | 0.83 | – | – | 1 | – | – | – | > 1000 | > 100 | – |
| CN(CCC(=O)/N=C(\N)NCCCc1c[nH]cn1)C(=O)c1cc2ccccc2[nH]1 | – | 347 | 11 | – | 0.68 | 0.3 | 3020 | 0.84 | – | 151 | 0.52 | 3550 | – | – | – | – | – |
| S=C(NC1CCCCC1)N1CCC(c2cnc[nH]2)CC1 | – | – | – | – | – | -0.71 | – | – | – | – | -0.95 | – | – | – | – | – | – |
| N/C(=N\C(=O)c1cc2ccccc2[nH]1)NCCCc1c[nH]cn1 | 1700 | 288 | – | 0.42 | 0.87 | -0.38 | – | – | – | – | 0.21 | – | – | 6.96 | – | – | 6.43 |
| N/C(=N\C(=O)CCNC(=O)c1cc2ccccc2[nH]1)NCCCc1c[nH]cn1 | – | 83.2 | – | – | 0.33 | 0.1 | – | – | – | 33.1 | 0.37 | – | – | 7.17 | – | – | – |
| CC(CC(=O)NC(N)=NCCCc1cnc[nH]1)c1ccccc1 (stereo not drawn) | – | – | 2.51 | – | – | – | – | – | – | – | – | – | – | – | – | – | – |
| N/C(=N\C(=O)Cc1c[nH]c2ccccc12)NCCCc1c[nH]cn1 | – | 36.3 | – | 0 | 0.81 | -0.15 | 38.9 | 0.91 | – | 19.1 | 0.7 | 182 | 5.68 | 7.51 | – | – | – |
| CC(=O)NC(N)=NCCCc1cnc[nH]1 | 12900 | 724 | 3.63 | – | – | – | 8510 | – | 363 | 4.9 | – | 813 | – | – | – | – | – |
| N/C(=N\C(=O)CNC(=O)c1cc2ccccc2[nH]1)NCCCc1c[nH]cn1 | – | 955 | 15.8 | – | 0.51 | 0.45 | – | – | – | 28.2 | 0.71 | – | – | – | – | – | – |
| N=C(N)NCCCc1c[nH]cn1 | – | – | – | – | 0.66 | 0.69 | – | – | – | – | 0.83 | – | < 5 | – | – | – | – |
| CC(CC(=O)/N=C(\N)NCCCc1c[nH]cn1)c1ccccc1 (stereo not drawn) | – | – | – | 0.35 | 0.87 | 0.24 | – | 0.99 | – | – | 0.84 | – | < 4.9 | – | – | – | – |
| CCCC(=O)/N=C(\N)NCCCc1c[nH]cn1 | 2190 | 141 | 1.58 | 0.33 | 0.77 | 0.37 | 3550 | 0.97 | 407 | 2.57 | 0.96 | 186 | – | – | – | – | – |
| N/C(=N\C(=O)CCCNC(=O)c1cc2ccccc2[nH]1)NCCCc1c[nH]cn1 | – | 30.2 | – | 0.16 | 0.51 | -0.18 | 741 | 0.9 | – | – | -0.06 | 490 | 4.96 | 7.17 | – | – | 7.02 |
